Key:
[1] = not told; cited from earlier work
CACNA2D1 = CACNA2D1 (Homo sapiens, UniProt P54289); details: listed as PRG; cited from earlier work
[2] = PRG in an oral solution; cited from earlier work
[3] = system: γ-aminobutyric acid (GABA) receptors; details: cited from earlier work
[4] = PRG release from formulation; format: physicochemical; details: as an aqueous eye drop
[5] = system: intraocular pressure (IOP); assay: IOP lowering by topically applied pregabalin without microemulsion (aqueous); format: in vivo
BXD29 mice = assay: Daily topical PRG ME in BXD29 mice (normal tension glaucoma model): IOP and optic nerve axons; format: in vivo
From the text: Objective: An obstacle in this study is the in vivo assessment of any direct neuroprotective effects of PRG that are independent of IOP lowering. […] These characteristics make BXD29 ideal for evaluating the direct neuroprotective properties of PRG on RGCs by eliminating indirect effects that would be mediated through IOP reduction.
We have evidence to show, without wishing to be bound by theory, that topical dosing with our PRG ME is neuroprotective to RGC axons in the ON. We dosed BXD29 mice daily with PRG ME beginning at 5 weeks of age (FIG. 9A) before ON degeneration was marked. […] In contrast, ON from mice dosed with unmedicated ME had loss of axon profiles and increased areas of debris (FIG. 9C). The studies will evaluate the role of PRG as a RGC neuroprotectant and define its cellular mechanism of action.

Dutch belted rabbits = assay: Single-drop IOP-lowering efficacy of PRG eye drop formulations; format: in vivo
Procedure: At 24 hours after dosing, IOP is still reduced by >20%.
Moreover, the combined effect of all three layers of our W/O/W ME is critical for enhancing the efficacy of PRG. […] Using this same model, we will evaluate our optimized formulations from Test 1.1.
Research Design and Methods: Dutch belted rabbits (Envigo Rabbitry; formerly Covance) will be used in this single-dose design study. Rabbits from this rabbitry can have higher baseline IOP values than those purchased from other rabbitries. Rabbits (equally balanced between males and females) will be acclimated to handling and IOP measurements for at least seven days before initiation of the study. Slit-lamp biomicroscopic and fundoscopic examinations will be performed before and after the study. Our top three formulations from Test 1.1 will be tested in this model using our methods^12. The IOP of both eyes will be measured using a rebound tonometer (Tono-Pen AVIA Vet, Reichert) immediately before the formulation application (baseline, 8 am) and at hourly time intervals after application until the IOP returns to baseline. Using a sterile micropipette tip, thirty microliters of the formulation containing PRG ME or blank control will be instilled topically into one eye of each rabbit, while the fellow eye will receive the formulation vehicle, and therefore serve as controls. Rabbits will be dosed daily at 8 am for 21 days, and IOP collected at 8 am (immediately pre-dosing) and at the time at which the maximum IOP reduction is measured (Tmax) using our methods^12. Curves similar to FIG. 16 will be generated. Biocompatibility of the antioxidant-containing formulations will be assessed using with slit lamp biomicroscopy as in FIG. 17. The person performing the studies will be blinded regarding which eye receives the medicated formation and which one receives the blank control for each rabbit. Assuming a power of 80%, and a marginal difference in IOP outcome of 30%, we estimate that this study will require 10 rabbits. We will also evaluate these formulations in C57Bl/6J (B6) mice and cynomolgus monkeys, which will allow for species confirmation and comparison.

[6] = topically applied PRG, aqueous / initial formulation without ME
[7] = topically applied PRG, aqueous / initial formulation without ME, listed as PRG
[8] = PRG in the absence of the ME (Carbopol 981 gel), single drop

Chain of CACNA2D1 (P54289 25-1103): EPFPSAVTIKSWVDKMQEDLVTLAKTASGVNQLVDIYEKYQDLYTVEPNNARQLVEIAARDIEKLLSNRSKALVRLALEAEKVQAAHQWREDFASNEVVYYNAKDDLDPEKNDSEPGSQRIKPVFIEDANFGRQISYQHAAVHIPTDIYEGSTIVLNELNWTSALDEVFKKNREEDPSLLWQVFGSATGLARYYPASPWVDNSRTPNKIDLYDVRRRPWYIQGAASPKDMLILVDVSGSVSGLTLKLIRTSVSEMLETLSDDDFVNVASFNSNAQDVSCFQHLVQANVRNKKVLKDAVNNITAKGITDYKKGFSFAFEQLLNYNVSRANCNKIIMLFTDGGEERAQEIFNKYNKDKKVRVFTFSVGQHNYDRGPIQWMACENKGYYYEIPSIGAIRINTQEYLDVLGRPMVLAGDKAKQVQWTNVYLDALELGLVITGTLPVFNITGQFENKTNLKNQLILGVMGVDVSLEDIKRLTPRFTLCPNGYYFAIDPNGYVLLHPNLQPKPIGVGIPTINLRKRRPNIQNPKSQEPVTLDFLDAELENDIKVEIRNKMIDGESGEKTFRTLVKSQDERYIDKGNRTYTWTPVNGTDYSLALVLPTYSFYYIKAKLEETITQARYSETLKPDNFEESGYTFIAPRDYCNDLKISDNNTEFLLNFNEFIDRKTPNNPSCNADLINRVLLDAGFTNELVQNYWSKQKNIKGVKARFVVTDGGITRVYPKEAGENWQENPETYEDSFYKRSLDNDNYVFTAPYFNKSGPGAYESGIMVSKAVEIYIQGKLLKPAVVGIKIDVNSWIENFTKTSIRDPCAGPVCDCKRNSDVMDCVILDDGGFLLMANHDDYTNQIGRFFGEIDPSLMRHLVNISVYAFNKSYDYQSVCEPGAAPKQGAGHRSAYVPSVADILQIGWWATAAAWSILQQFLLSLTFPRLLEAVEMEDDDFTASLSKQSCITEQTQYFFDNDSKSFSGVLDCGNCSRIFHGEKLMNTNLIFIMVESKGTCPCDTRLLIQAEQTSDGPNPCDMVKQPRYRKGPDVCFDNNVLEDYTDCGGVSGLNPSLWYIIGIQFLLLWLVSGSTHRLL

For `CC(C)C[C@H](CN)CC(=O)O` [pregabalin], the membrane permeability [1] is given as “high”, the “affinity for CACNA2D1” value (CACNA2D1) is given as “high affinity and specificity” and the chemical stability [2] is given as > 1 year. The “binding to GABA receptors” value [3] was “does not bind”, the PRG release time [4] was 3 h and the “IOP lowering, dose dependence” value ([5]; topical dosing) was “dose dependent manner”. The IOP reduction [5, 6] was 20%, the “time at which IOP returns to baseline” value [5, 6] was ≤ 7 h and the IOP reduction [5, 7] was 17%. The “time at which IOP returns to baseline” value [5, 7] was 6 h, the IOP lowering ([5]; without the microemulsion) was “about 20%” and the “time at which IOP returns to baseline” value ([5]; without the microemulsion) was 8 to 10 h. For the same compound, the “optic nerve (ON) axons” value (BXD29 mice; daily topical dosing for 6 weeks from 5 weeks of age) was “prevents degeneration of axons”, the IOP response (BXD29 mice; topical dosing, up to 6 weeks daily) was “unresponsive” and the “AUC of IOP reduction” value (Dutch belted rabbits; PRG in the absence of the ME) was 38 mmHg·hr. For the same compound, the IOP reduction (Dutch belted rabbits; [8]) was 30%, the “time at which IOP returns to baseline” value (Dutch belted rabbits; [8]) was 10 h and the “IOP lowering, dose dependence” value (Dutch belted rabbits; topical dosing with PRG, Dutch belted rabbits) was “dose dependent manner”.

From US20240156765A1, “METHODS OF NEUROPROTECTION AND USES THEREOF” (UNIVERSITY OF TENNESSEE RESEARCH FOUNDATION, priority 2020, published 2024)
